Experimental findings from patent US20240018153A1, “BENZENESULFONAMIDE DERIVATIVES AND USES THEREOF” (2692372 ONTARIO, INC., priority 2020, published 2024) are described below.

One assay deals with EGFR (Homo sapiens (Human), UniProt P00533). Put plainly: HTRF KinEASE-TK kinase assay, EGFR. The class given is biochemical. The conditions noted are these: 3 h preincubation; for remaining activity at 1 µM: 1 μM compound, read-out: % EGFR Remaining activity vs DMSO (1 μM, 3 h); for remaining activity at 10 µM: 10 μM compound, read-out: % EGFR Remaining activity vs DMSO (10 μM, 3 h); for IC50: dose response, read-out: EGFR Inhibition IC50. A digest of the protocol:
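HTRF KinEASE-TK format: EGFR pre-incubated with compound at 1 and 10 uM final (0.5% DMSO) in kinase buffer with 2 mM MnCl2, 5 mM MgCl2 and 1 mM TCEP.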

The target in assay [1] is T1, BTK (Homo sapiens (Human), UniProt Q06187). Put plainly: HTRF KinEASE-TK kinase assay, BTK. The class given is biochemical. The settings on record: 3 h preincubation; for remaining activity at 1 µM: 1 μM compound, read-out: % BTK Remaining activity vs DMSO (1 μM, 3 h); for remaining activity at 10 µM: 10 μM compound, read-out: % BTK Remaining activity vs DMSO (10 μM, 3 h). In outline:
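BTK activity in HTRF KinEASE-TK format, buffer containing 10 mM MnCl2, 5 mM MgCl2, 1 uM ATPγS and 1 mM TCEP; 45 min reaction with biotinylated substrate and ATP.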
On the technique in general: Time-resolved FRET reads energy transfer from a long-lived donor to a nearby acceptor.

For assay [2], the target named is T1, BTK. Put plainly: Ramos RA1 cell lysis and immunoassay, total BTK degradation. The format is cell-based. Further details: key to % BTK degradation (RAMOS, 24 h): Y: BTK bound in cells and BTK degradation occurred; concentration or dose not given beside the values; key to % BTK degradation (RAMOS, 10 uM, 24 h): Y: EGFR bound in cells and EGFR degradation occurred. The settings on record: RAMOS cells. As for the experimental part: Ramos RA 1 cells (ATCC) were cultured in RPMI-1640 media (Wisent) supplemented with 10% heat-inactivated FBS and 1% penicillin/streptomycin. Cells were seeded in 6-well plates at 1.71×10^6 cells/well and incubated at 37° C., 5% CO2 for 16 hours. Cells were treated with compound at the indicated concentrations or DMSO alone and incubated at 37° C., 5% CO2 for 24 hours. Cell suspensions were centrifugated at 1,400-1,600 RPM for 5 minutes at room temperature and supernatants were discarded. Cell pellets were resuspended with 1× RIPA buffer (Millipore) and incubated on ice for 15 minutes. Protein lysates were extracted by centrifugating at 20,000 RPM for 20 minutes at 4° C. Proteins were separated and total BTK protein levels were quantified by Simple Western Immunoassay (ProteinSimple) using the 12-230 kDa Jess Separation Module according to the manufacturer's protocol, using a protein concentration of 0.25 μg/μl and antibodies targeting BTK (clone #D3H5, Cell Signalling) and β-Actin (clone #AC-15, Santa Cruz) diluted to 1:400 and 1:10, respectively, where the latter was used as a loading control. An equal ratio of rabbit and mouse HRP-conjugated secondary antibodies was used for detection. BTK protein levels were quantified relative to S-Actin loading levels and subsequently normalized to the DMSO control. Phosphorylated BTK levels were quantified using the Protein Normalization Assay Module for Jess (ProteinSimple) according to the manufacturer's protocol, using a protein concentration of 1.5 μg/μl and an antibody targeting pBTK (Y223) (Cell Signalling) diluted to 1:50. Phosphorylated BTK levels were quantified relative to the Protein Normalization Reagent and subsequently normalized to the DMSO control.

The target in the next assay is BMX (Homo sapiens (Human), UniProt P51813). Put plainly: HTRF KinEASE-TK kinase assay, BMX. The format is biochemical. The settings on record: for remaining activity at 1 µM: 1 uM compound; for remaining activity at 1 µM / remaining activity at 10 µM: 3 h preincubation; for remaining activity at 10 µM: 10 uM compound. A digest of the protocol: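 Purchased BMX (0.333 ng/ul, 3.03 nM) was preincubated with or without inhibitor for 3 h at room temperature, then biotinylated substrate and ATP were added. Reactions were stopped with EDTA-containing buffer holding 31.25 nM SA-XL665 and Eu-antibody, and after 60 min phosphorylation was read as the HTRF 665/620 nm emission ratio.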

The target of another assay is JAK3 (Homo sapiens (Human), UniProt P52333). Put plainly: HTRF KinEASE-TK kinase assay, JAK3. The class given is biochemical. The conditions noted are these: for IC50: dose response; for remaining activity at 1 µM: read-out: % JAK3 Remaining activity vs DMSO (1 μM, 3 h); for remaining activity at 10 µM: read-out: % JAK3 Remaining activity vs DMSO (10 μM, 3 h). A digest of the protocol:
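Promega JAK3 at 0.21 nM was preincubated with inhibitor for 3 h at room temperature before biotinylated substrate and ATP were added. The reaction was stopped with EDTA detection buffer containing 31.25 nM SA-XL665 and Eu-antibody. After 60 min, the HTRF 665/620 nm emission ratio reflected substrate phosphorylation.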

A further assay deals with FGFR4 (Homo sapiens (Human), UniProt P22455). Put plainly: HTRF KinEASE-TK kinase assay, FGFR4. The conditions noted are these: for remaining activity at 1 µM: read-out: % FGFR4 Remaining activity vs DMSO (1 μM, 3 h); for remaining activity at 10 µM: read-out: % FGFR4 Remaining activity vs DMSO (10 μM, 3 h); for IC50: dose response. The format is biochemical. A digest of the protocol: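 Promega FGFR4 at 0.333 ng/ul (5.12 nM) preincubated with or without inhibitor for 3 h at room temperature, then reaction started with biotinylated substrate and ATP. Stopped with EDTA detection buffer containing 31.25 nM SA-XL665 and Eu-antibody; after 60 min, HTRF 665/620 nm ratio read as substrate phosphorylation.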
Sequence of FGFR4 (P22455 22-802): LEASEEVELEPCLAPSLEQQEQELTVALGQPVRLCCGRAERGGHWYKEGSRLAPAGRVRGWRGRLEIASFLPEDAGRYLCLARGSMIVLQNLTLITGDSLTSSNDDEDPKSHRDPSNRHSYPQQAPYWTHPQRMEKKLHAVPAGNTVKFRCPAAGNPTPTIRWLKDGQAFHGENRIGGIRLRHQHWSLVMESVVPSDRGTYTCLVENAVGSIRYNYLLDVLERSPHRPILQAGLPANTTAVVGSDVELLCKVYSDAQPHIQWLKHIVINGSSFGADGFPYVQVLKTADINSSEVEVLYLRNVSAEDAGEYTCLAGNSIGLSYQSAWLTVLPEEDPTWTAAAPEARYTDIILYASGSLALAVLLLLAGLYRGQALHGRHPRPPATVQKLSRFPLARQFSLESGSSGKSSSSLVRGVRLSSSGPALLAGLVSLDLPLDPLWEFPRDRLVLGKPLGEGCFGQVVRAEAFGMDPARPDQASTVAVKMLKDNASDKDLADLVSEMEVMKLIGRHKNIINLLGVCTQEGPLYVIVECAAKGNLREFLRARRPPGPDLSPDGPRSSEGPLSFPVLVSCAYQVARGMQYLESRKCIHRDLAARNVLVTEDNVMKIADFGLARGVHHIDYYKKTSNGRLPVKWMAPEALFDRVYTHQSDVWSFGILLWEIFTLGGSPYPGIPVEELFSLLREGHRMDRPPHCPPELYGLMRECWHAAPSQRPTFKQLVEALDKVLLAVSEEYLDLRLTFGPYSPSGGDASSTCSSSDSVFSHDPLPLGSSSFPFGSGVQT

T1 sequence (Q06187 whole entry): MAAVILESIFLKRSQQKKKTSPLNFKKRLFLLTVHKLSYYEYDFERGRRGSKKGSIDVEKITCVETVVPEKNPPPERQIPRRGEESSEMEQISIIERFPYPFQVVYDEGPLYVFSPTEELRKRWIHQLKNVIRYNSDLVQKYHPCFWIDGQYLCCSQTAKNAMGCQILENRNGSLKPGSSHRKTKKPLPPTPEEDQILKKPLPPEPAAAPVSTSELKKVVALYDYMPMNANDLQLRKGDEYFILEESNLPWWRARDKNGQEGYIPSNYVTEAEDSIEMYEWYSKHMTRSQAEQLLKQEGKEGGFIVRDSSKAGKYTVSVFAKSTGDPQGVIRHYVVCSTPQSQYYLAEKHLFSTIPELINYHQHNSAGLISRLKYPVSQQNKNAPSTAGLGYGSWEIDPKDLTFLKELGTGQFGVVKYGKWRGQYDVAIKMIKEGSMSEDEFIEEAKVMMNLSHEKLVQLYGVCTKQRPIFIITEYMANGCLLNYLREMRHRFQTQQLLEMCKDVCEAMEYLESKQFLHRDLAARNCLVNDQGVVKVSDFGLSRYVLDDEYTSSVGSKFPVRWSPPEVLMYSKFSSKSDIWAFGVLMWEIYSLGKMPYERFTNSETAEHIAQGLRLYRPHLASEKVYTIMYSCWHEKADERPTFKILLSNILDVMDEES
Sequence of JAK3 (P52333 781-1124): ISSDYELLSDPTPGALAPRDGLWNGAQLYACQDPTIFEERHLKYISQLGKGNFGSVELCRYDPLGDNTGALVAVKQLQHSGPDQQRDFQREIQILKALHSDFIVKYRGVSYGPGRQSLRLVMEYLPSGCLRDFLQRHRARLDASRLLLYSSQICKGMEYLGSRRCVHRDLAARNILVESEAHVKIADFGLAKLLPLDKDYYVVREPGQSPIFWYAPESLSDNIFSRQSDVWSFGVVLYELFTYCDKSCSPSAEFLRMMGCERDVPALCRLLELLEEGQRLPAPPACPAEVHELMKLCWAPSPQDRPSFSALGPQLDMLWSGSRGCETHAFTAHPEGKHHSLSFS
Sequence of BMX (P51813 whole entry): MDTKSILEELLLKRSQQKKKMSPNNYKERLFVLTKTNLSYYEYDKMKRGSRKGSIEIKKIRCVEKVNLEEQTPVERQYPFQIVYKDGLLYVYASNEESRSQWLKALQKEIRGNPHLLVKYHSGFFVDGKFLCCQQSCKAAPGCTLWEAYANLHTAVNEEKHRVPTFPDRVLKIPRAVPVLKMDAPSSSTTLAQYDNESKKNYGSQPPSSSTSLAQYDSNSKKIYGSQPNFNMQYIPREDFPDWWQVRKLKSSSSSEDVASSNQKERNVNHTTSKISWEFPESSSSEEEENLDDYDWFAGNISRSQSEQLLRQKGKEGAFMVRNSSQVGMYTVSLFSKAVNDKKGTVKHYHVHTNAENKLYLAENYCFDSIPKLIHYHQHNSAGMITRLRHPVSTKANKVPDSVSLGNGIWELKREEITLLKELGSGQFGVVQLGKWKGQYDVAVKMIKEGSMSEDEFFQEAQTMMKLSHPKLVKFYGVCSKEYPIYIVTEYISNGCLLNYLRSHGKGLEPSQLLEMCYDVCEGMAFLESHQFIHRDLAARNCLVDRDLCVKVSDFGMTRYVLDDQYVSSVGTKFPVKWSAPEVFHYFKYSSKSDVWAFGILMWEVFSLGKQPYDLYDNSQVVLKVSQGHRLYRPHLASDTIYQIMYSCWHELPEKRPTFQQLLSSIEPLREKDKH
Sequence of EGFR (P00533 25-1210): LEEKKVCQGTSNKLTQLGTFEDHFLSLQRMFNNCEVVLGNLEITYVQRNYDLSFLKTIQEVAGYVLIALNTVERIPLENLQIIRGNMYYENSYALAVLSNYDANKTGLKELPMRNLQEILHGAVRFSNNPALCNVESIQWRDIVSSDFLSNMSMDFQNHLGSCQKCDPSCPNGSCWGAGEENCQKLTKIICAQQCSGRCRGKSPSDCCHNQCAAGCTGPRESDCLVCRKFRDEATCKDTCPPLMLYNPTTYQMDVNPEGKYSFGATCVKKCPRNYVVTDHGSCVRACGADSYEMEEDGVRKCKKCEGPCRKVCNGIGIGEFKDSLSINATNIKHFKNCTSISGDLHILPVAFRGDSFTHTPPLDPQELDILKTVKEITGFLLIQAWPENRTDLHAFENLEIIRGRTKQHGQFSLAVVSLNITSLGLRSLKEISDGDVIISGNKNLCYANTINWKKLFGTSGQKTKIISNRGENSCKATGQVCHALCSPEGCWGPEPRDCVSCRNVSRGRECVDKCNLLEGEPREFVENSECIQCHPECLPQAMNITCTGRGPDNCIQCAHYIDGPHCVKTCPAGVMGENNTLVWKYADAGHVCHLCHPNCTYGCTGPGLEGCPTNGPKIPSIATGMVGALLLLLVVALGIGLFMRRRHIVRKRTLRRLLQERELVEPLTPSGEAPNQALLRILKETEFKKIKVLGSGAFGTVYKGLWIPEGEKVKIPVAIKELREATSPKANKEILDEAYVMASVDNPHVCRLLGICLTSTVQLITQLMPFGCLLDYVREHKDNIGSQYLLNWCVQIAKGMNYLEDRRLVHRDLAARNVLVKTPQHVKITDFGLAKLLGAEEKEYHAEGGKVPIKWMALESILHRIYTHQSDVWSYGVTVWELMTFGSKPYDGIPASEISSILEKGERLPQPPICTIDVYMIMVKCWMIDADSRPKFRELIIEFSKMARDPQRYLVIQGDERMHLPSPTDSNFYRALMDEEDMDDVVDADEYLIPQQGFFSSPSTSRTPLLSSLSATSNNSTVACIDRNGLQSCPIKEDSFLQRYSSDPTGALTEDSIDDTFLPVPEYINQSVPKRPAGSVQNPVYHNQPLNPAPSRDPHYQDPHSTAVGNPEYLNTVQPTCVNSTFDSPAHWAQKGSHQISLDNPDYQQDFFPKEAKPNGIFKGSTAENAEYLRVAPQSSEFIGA

`CS(=O)(=O)c1c(F)c(F)c(F)c(F)c1CNCCNc1ncnc2[nH]ccc12` [Compound I-50, N^1-(7H-pyrrolo[2,3-d]pyrimidin-4-yl)-N2-(2,3,4,5-tetrafluoro-6-(methylsulfonyl)benzyl) ethane-1,2-diamine]: the remaining activity at 1 µM on EGFR was more than 90%; on BTK [1] it was less than 50%; on BMX, less than 50%; at JAK3 it was less than 50%; on FGFR4, more than 90%. Moreover, the remaining activity at 10 µM on EGFR was 50 to 90%; at BTK [1], less than 50%; on BMX it was less than 50%; at JAK3, less than 50%; at FGFR4 it was 50 to 90%. Further, the IC50 is less than 1000 nM on BTK [1] (dose response, read-out: BTK Inhibition IC50); less than 1000 nM on BMX (dose response); more than 1000 nM at JAK3. For the same compound, the “% BTK degradation (RAMOS, 24 h)” value at BTK [2] was “Y”.

On to `COCCOc1ccc(Nc2ncc(F)c(Nc3cccc(Nc4c(F)c(F)c(F)c(F)c4S(C)(=O)=O)c3)n2)cc1` [Compound I-64, 5-fluoro-N^2-(4-(2-methoxyethoxy)phenyl)-N^4-(3-((2,3,4,5-tetrafluoro-6-(methylsulfonyl)phenyl)amino)phenyl)pyrimidine-2,4-diamine], for which the remaining activity at 1 µM was more than 90% on EGFR; less than 50% at BTK [1]; less than 50% at BMX; 50 to 90% on JAK3; less than 50% at FGFR4. The remaining activity at 10 µM is more than 90% at EGFR; less than 50% at BTK [1]; less than 50% on BMX; less than 50% at JAK3; less than 50% on FGFR4. In addition, the “% BTK degradation (RAMOS, 24 h)” value at BTK [2] is “Y”.

As to `COCCOc1ccc(Nc2ncc(F)c(Nc3cccc(Nc4c(F)c(F)c(F)c(F)c4[S@+](C)[O-])c3)n2)cc1` (stereo in doubt) [Compound I-63, 5-fluoro-N^2-(4-(2-methoxyethoxy)phenyl)-N^4-(3-((2,3,4,5-tetrafluoro-6-(methylsulfinyl)phenyl)amino)phenyl)pyrimidine-2,4-diamine], the remaining activity at 1 µM on EGFR was more than 90%; on BTK [1], less than 50%; on BMX, less than 50%; on JAK3, more than 90%; at FGFR4 it was more than 90%. Moreover, the remaining activity at 10 µM on EGFR was more than 90%; at BTK [1], 50 to 90%; at BMX it was less than 50%; at JAK3, 50 to 90%; at FGFR4 it was more than 90%. Moreover, the “% BTK degradation (RAMOS, 24 h)” value at BTK [2] was “Y”. Also, the “% BTK degradation (RAMOS, 10 uM, 24 h)” value at BTK [2] is “Y”.

As to `COCCOc1ccc(Nc2ncc(F)c(Nc3cccc(NC(=O)c4c(F)c(F)c(F)c(F)c4S(C)(=O)=O)c3)n2)cc1` [Compound I-61, 2,3,4,5-tetrafluoro-N-(3-((5-fluoro-2-((4-(2-methoxyethoxy)phenyl)amino)pyrimidin-4-yl)amino)phenyl)-6-(methylsulfonyl)benzamide], the remaining activity at 1 µM is more than 90% at EGFR; less than 50% on BTK [1]; less than 50% on BMX; less than 50% on JAK3; less than 50% on FGFR4. Also, the remaining activity at 10 µM on EGFR, at BTK [1], on BMX, at JAK3 and at FGFR4 was less than 50% in each case. Further, the IC50 at JAK3 and at FGFR4 was less than 1000 nM in each case.

Take `Nc1ncnc2c1c(-c1ccc(Oc3ccccc3)cc1)nn2[C@@H]1CCN(S(=O)(=O)c2c(F)c(F)c(F)c(F)c2OCF)C1` [Compound I-24, (R)-3-(4-phenoxyphenyl)-1-(1-((2,3,4,5-tetrafluoro-6-(fluoromethoxy)phenyl)sulfonyl)pyrrolidin-3-yl)-1H-pyrazolo[3,4-d]pyrimidin-4-amine]: the remaining activity at 1 µM on EGFR is more than 90%; on BTK [1], less than 50%; at BMX it was less than 50%; at JAK3, more than 90%; on FGFR4, less than 50%. For the same compound, the remaining activity at 10 µM on EGFR was more than 90%; on BTK [1] it was less than 50%; at BMX, less than 50%; on JAK3 it was 50 to 90%; at FGFR4, less than 50%. Besides, on FGFR4, the IC50 is more than 1000 nM.

As to `C[S+]([O-])c1c(F)c(F)c(F)c(F)c1C(=O)Nc1cc2c(Nc3ccc(F)c(Cl)c3)ncnc2cc1OC1CCOC1` (stereo not shown) [Compound I-3], the remaining activity at 1 µM was less than 50% at EGFR; 50 to 90% on BTK [1]; 50 to 90% on BMX; more than 90% on JAK3; more than 90% on FGFR4. For the same compound, the remaining activity at 10 µM on EGFR was less than 50%; on BTK [1], 50 to 90%; on BMX, more than 90%; at JAK3, more than 90%; at FGFR4, more than 90%. For the same compound, the IC50 on EGFR is less than 1000 nM. For the same compound, the “% BTK degradation (RAMOS, 24 h)” value at BTK [2] is “Y”.

With `C[S+]([O-])c1c(F)c(F)c(F)c(F)c1Nc1cc2c(Nc3ccc(F)c(Cl)c3)ncnc2cc1O[C@H]1CCOC1` (stereo partly drawn) [Compound I-4, N^4-(3-chloro-4-fluorophenyl)-N^6-(2,3,4,5-tetrafluoro-6-(methylsulfinyl)phenyl)-7-(((S)-tetrahydrofuran-3-yl)oxy)quinazoline-4,6-diamine], the remaining activity at 1 µM on EGFR was less than 50%; on BTK [1], more than 90%; at BMX, more than 90%; at JAK3, more than 90%; at FGFR4 it was more than 90%. Also, the remaining activity at 10 µM on EGFR was less than 50%; at BTK [1], less than 50%; on BMX it was more than 90%; at JAK3 it was more than 90%; at FGFR4, more than 90%. Further, at EGFR, the IC50 was less than 1000 nM. For the same compound, at BTK [2], the “% BTK degradation (RAMOS, 24 h)” value is “Y”. In addition, the “% BTK degradation (RAMOS, 10 uM, 24 h)” value on BTK [2] is “Y”.

As usually defined, the remaining activity is the share of the control activity or signal that is left under treatment. Broadly, the IC50 is the concentration at which inhibition is half-maximal.
